Entries after “also recorded” stand apart in the source; their conditions may differ.
Assays:
[1] = DPPH free radical scavenging activity; format: biochemical; details: 300 μM DPPH, 37° C., 30 minutes
Protocol: 40 μl of a sample was mixed with 760 μl of 300 μM 2,2-diphenyl-1-picrylhydrazyl (DPPH) and the mixture was incubated at 37° C. for 30 minutes, and then the mixture was aliquoted to each well of a 96-well plate in triplicate and absorbance was measured at 515 nm using a microplate reader. BHT was used as a positive control group.

[2] = system: XBP-1; experiment: XBP-1 gene expression (real-time PCR) in RAW 264.7 cells; format: cell-based; details: normal group (N) 1.00
Protocol: (§3) To identify the gene expression levels of XBP-1, TNF-α, and IL-6, real-time PCR was performed according to the same method as described in Example 3 except primers.

[3] = system: TNF-α; experiment: TNF-α gene expression (real-time PCR) in RAW 264.7 cells; format: cell-based; details: normal group (N) 1.01
Protocol: as §3

[4] = system: OLETF/LETO rats; experiment: Intraperitoneal insulin tolerance test (IPITT); format: in vivo, rat; details: metformin 100 mg/kg alone or with 200 mg/kg extract, insulin 1 U/kg IP
Protocol: Dietary intakes, body weights, states, and the like were checked weekly, and at 24 weeks, an IPITT was performed using blood collected from the tail veins. After 12 weeks, the rats were sacrificed under anesthesia with an intraperitoneal (IP) injection of Zoletil/Rompun, and fat, each organ sample, and serum were separated. One week prior to the end of the experiments, OLETF/LETO rats were fasted for 15 hours and then administered with 1 U/kg of insulin by intraperitoneal (IP) injection, and then measurement of blood sugar levels was performed using an Accu-Chek blood glucose meter (Roche, USA) on blood samples, which had been collected from the tail vein of each individual by bleeding a small amount of blood at 0, 30, 60, 90, and 120 minutes. The obtained values for blood sugar levels were analyzed using an area under curve (AUC), and the like.

[5] = in vivo; details: rat, po, 100 mg/kg
[6] = system: RAW 264.7 cells; experiment: LPS-induced nitrogen monoxide (NO) generation, GRIESS reaction; format: cell-based; details: 1 μg/ml LPS, 24 hours, compared to LPS group / metformin alone
Protocol: To compare an anti-inflammatory function, an in vitro model of LPS-induced nitrogen monoxide (NO) generation was used in an experiment, and NO measurement was carried out using a cell supernatant based on the GRIESS reaction (Green et al., 1982). RAW 264.7 cells were seeded at a density of 1.5×10^5 cells/ml and pre-treated with samples diluted at various concentrations, and after 1 hour, the pretreated cells were treated with 1 μg/ml of lipopolysaccharide (LPS: Sigma, St Louis, Mo., USA), followed by incubation for 24 hours. 50 μl of a cell culture supernatant and 50 μl of 1% (w/v) sulfanilamide, a GRIESS reagent, were added to each well of a 96-well plate, and the 96-well plate shaded from light was incubated at room temperature for 10 minutes and then 50 μl of 0.1% (w/v) N-1-naphthylethylenediamine dissolved in 2.5% (v/v) phosphoric acid was added to each well of the 96-well plate and mixed, followed by incubation under dark conditions for 10 minutes. Absorbance was read at 540 nm using a microplate reader (Molecular Devices, CA, USA) within 30 minutes after finishing incubation. NO production was calculated using a nitric oxide standard solution.

[7] = system: HepG2 cells; experiment: Intracellular reactive oxygen species (ROS) activity, DHR123/FACS; format: cell-based; details: 6 hours, compared to normal group / metformin alone
Protocol: After centrifugation at 1200 g for 5 minutes, a supernatant was discarded, and the remaining HepG2 cells were treated with 5 μg/ml of DHR123, followed by incubation at 37° C. for 30 minutes. After additional centrifugation for 5 minutes, PBS washing was performed two times and filtration was performed. Intracellular reactive oxygen species activity was measured based on the value of fluorescence intensity obtained from FACS analysis.

[8] = system: L6 rat myoblast cells; experiment: Glucose uptake assay (2-NBDG); format: cell-based; details: 2-NBDG 100 μg/ml; compared to control group / metformin alone
Excerpt: Undifferentiated L6 rat myoblast cells were differentiated into myotube cells using 2% horse serum. […] When performing measurement, apigenin, a compound that inhibits glucose uptake, was used as a control.

[9] = system: AMPK-α; experiment: AMPK-α gene expression (real-time PCR) in RAW 264.7 cells; format: cell-based; details: normal group (N) 0.80
Protocol: (§1) Total RNA was separated and purified using TRIsure (Bioline, USA) according to a protocol. 1 μg of total RNAs was subjected to a reverse transcription reaction using a cDNA synthesis kit (Sprint™RT Complete Oligo-(dT)18, Clontech, Mountain View, Calif., USA) according to a protocol for synthesizing first strand cDNA. The produced RT-PCR sample was subjected to real-time PCR reaction, in which the final reaction volume was adjusted to 20 μl and Light Cycler-Fast Start DNA Master SYBR Green (Roche Applied Science, Indianapolis, Ind., USA) and a Light Cycler instrument (Roche Applied Science) were used.
(§2) PCR amplification was performed according to PCR steps, consisting of a pre-incubation step at 95° C. for 10 minutes and 35 (for beta-actin) or 45 (for C/EBPa) cycles of amplification (denaturation at 95° C. for 10 seconds, annealing at 52° C. for 10 seconds, and extension at 72° C. for 15 seconds). Total RNA was separated and purified using TRIsure (Bioline, USA) according to a protocol. 1 μg of total RNAs was subjected to a reverse transcription reaction using a cDNA synthesis kit (Sprint™RT Complete Oligo-(dT)18, Clontech, Mountain View, Calif., USA) according to a protocol for synthesizing first strand cDNA. […]

[10] = system: 3T3-L1 cells; experiment: Fat cell differentiation (Oil red O staining); format: cell-based; details: compared to control group / metformin alone
Protocol: After seeding 3T3-L1 cells into a 6-well plate at a density of 5×10^5 cells/well, the cells were cultured until reaching full confluence. The pre-existing culture medium for the cells was exchanged with DMEM (differentiation media) containing 1 μM dexamethasone, 0.5 mM IBMX, and 10 μg/ml insulin, and the cells were cultured for 48 hours and then were treated with DMEM (maturation media) containing 10 μg/ml insulin to induce differentiation. Differentiation-induced fat cells produced as a result of the process were treated with samples at various concentrations or a positive control group, and inhibitory effects on fat cell differentiation were analyzed using an Oil red O staining method, TG, and a TC assay.

[11] = system: IL-6; experiment: IL-6 gene expression (real-time PCR) in RAW 264.7 cells; details: normal group (N) 1.11
Protocol: as §3

[12] = system: PPAR-α; experiment: PPAR-α gene expression (real-time PCR) in RAW 264.7 cells; format: cell-based; details: normal group (N) 1.01
Protocol: as §1, §2

[13] = system: RIN-m5F insulinoma cells; experiment: Insulin secretion assay (rat insulin ELISA); format: cell-based; details: […] metformin with extract, 20 mM glucose
Protocol: A portion of cell culture supernatant was subjected to centrifugation at 4° C. for 10 minutes, and after centrifugation, a supernatant was collected and stored at −20° C. for further use. The amount of secreted insulin was measured using a rat insulin ELISA kit (Mercodia, Sweden), and an insulin secretion amount per gram of proteins was calculated by measuring the concentration of cellular proteins in each well.

Question: Which “DPPH free radical scavenging IC50” value [1] does the source give for Cc1cc(C(C)(C)C)c(O)c(C(C)(C)C)c1 [BHT] here?
Answer: 113.85 µg/mL

Question: Which results are given for CN(C)C(=N)N=C(N)N [Metformin, metformin]?
Answer: gene expression level of XBP-1 [2]: 1.01; gene expression level of TNF-α [3]: 1.34; insulin resistance (IPITT, blood sugar AUC) [4]: tendency to decrease; also recorded: tendency of decreasing; CL renal ([5]; blood and urine): 40.3 ± 13.8 mL/min/kg; AUC(0-t) ([5]; blood): 29000 ng·h/mL; CL/F ([5]; blood): 54.3 ± 15.4 mL/min/kg; Cmax ([5]; blood): 7650 ± 3100 ng/mL; Tmax ([5]; blood): 1.5 h; production amount of nitrogen monoxide [6]: production amount of nitrogen monoxide was decreased; intracellular ROS activity [7]: tendency of decreasing intracellular reactive oxygen species (ROS) activity; capacity of glucose uptake [8]: increased capacity of glucose uptake; gene expression level of AMPK-α [9]: 0.76; lipid formation attributed to differentiation of 3T3-L1 preadipocytes [10]: tendency of decreasing lipid formation; gene expression level of IL-6 [11]: 1.91; gene expression level of PPAR-α [12]: 0.68; amount of insulin secretion [13]: significant changes in the amounts of insulin secretion were not observed

From US20170239310A1, “Composition for Promoting Anti-Diabetic and Anti-Obesity Effects, Comprising Herbal Extract” (DONGGUK UNIVERSITY GYEONGJU CAMPUS INDUSTRY- ACADEMY …, priority 2014, published 2017)
